# Data published in PubChem BioAssay AID248 (DTP/NCI, 2004).
# “And” between values parts separate entries of the source, which are not always exact repeats. Equal entries are not always repeated. Inconclusive results and toxic doses are left out.
# Test system: L1210 leukemia ip in BDF1 mice, survival T/C
# Assay: NCI In Vivo Anticancer Drug Screen. Data for tumor model L1210 Leukemia (intraperitoneal) in B6D2F1 (BDF1) mice
# Details: endpoint: mean survival time, higher = longer survival
# Method in brief: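 Transplantable tumor model; survival measured in treated vs vehicle control mice. Value = treated/control.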
# [1] = dose: 12.5 mg/kg/injection, schedule: Q04DX003 (ip), vehicle: saline
# [2] = dose: 25.0 mg/kg/injection, schedule: Q04DX003 (ip), vehicle: saline
# [3] = dose: 50.0 mg/kg/injection, schedule: Q04DX003 (ip), vehicle: saline
# [4] = dose: 100.0 mg/kg/injection, schedule: Q01DX001 (ip), vehicle: other
# [5] = dose: 200.0 mg/kg/injection, schedule: Q01DX001 (ip), vehicle: other
# [6] = dose: 400.0 mg/kg/injection, schedule: Q01DX001 (ip), vehicle: other
# [7] = dose: 100.0 mg/kg/injection, schedule: Q01DX001 (ip), vehicle: saline
# [8] = dose: 200.0 mg/kg/injection, schedule: Q01DX001 (ip), vehicle: saline
# [9] = dose: 400.0 mg/kg/injection, schedule: Q01DX001 (ip), vehicle: saline
# [10] = dose: 100.0 mg/kg/injection, schedule: Q04DX003 (ip), vehicle: Klucel (hydroxypropylcellulose) (HPC)
# [11] = dose: 200.0 mg/kg/injection, schedule: Q04DX003 (ip), vehicle: Klucel (hydroxypropylcellulose) (HPC)
# [12] = dose: 400.0 mg/kg/injection, schedule: Q04DX003 (ip), vehicle: Klucel (hydroxypropylcellulose) (HPC)
# [13] = dose: 100.0 mg/kg/injection, schedule: Q04DX003 (ip), vehicle: saline
# [14] = dose: 200.0 mg/kg/injection, schedule: Q01DX009 (ip), vehicle: saline
# [15] = dose: 200.0 mg/kg/injection, schedule: Q04DX003 (ip), vehicle: saline
# [16] = dose: 400.0 mg/kg/injection, schedule: Q04DX003 (ip), vehicle: saline
# [17] = dose: 100.0 mg/kg/injection, schedule: Q01DX001 (ip), vehicle: carboxymethylcellulose (CMC)
# [18] = dose: 200.0 mg/kg/injection, schedule: Q01DX001 (ip), vehicle: carboxymethylcellulose (CMC)
# [19] = dose: 400.0 mg/kg/injection, schedule: Q01DX001 (ip), vehicle: carboxymethylcellulose (CMC)
smiles,measurement,setting,value
CC(=O)CCC(=O)O,T/C,"dose: 1.56 mg/kg/injection, schedule: Q01DX Z (ip), vehicle: other",98 % of control
same,T/C,"dose: 3.13 mg/kg/injection, schedule: Q01DX Z (ip), vehicle: other",96 % of control
same,T/C,"dose: 6.25 mg/kg/injection, schedule: Q01DX Z (ip), vehicle: other",96 % of control
same,T/C,"dose: 12.5 mg/kg/injection, schedule: Q01DX Z (ip), vehicle: other",95 % of control
same,T/C,"dose: 25.0 mg/kg/injection, schedule: Q01DX Z (ip), vehicle: other",95 % of control
same,T/C,"dose: 50.0 mg/kg/injection, schedule: Q01DX Z (ip), vehicle: other",98 % of control
same,T/C,"dose: 100.0 mg/kg/injection, schedule: Q01DX Z (ip), vehicle: other",113 % of control
same,T/C,"dose: 100.0 mg/kg/injection, schedule: Q04DX002 (ip), vehicle: saline",88 % of control
same,T/C,"dose: 200.0 mg/kg/injection, schedule: Q01DX Z (ip), vehicle: other",96 % of control
same,T/C,"dose: 200.0 mg/kg/injection, schedule: Q04DX002 (ip), vehicle: saline",100 % of control
same,T/C,"dose: 400.0 mg/kg/injection, schedule: Q04DX002 (ip), vehicle: saline",118 % of control
CN1CCCN(C)C1c1ccccc1O,T/C,[1],96 % of control
same,T/C,[2],106 % of control
same,T/C,[3],101 % of control
FC(F)/C=C\c1ccccc1,T/C,"dose: 75.0 mg/kg/injection, schedule: Q01DX001 (ip), vehicle: other",103 % of control
same,T/C,"dose: 150.0 mg/kg/injection, schedule: Q01DX001 (ip), vehicle: other",105 % of control
same,T/C,"dose: 300.0 mg/kg/injection, schedule: Q01DX001 (ip), vehicle: other",111 % of control
[Si]C1CCCCC1,T/C,"dose: 100.0 mg/kg/injection, schedule: Q01DX001 (ip), vehicle: saline with Tween-80",96 % of control
same,T/C,"dose: 200.0 mg/kg/injection, schedule: Q01DX001 (ip), vehicle: saline with Tween-80",89 % of control
same,T/C,"dose: 400.0 mg/kg/injection, schedule: Q01DX001 (ip), vehicle: saline with Tween-80",96 % of control
CCOP(=S)(S)OCC.[Cr],T/C,"dose: 50.0 mg/kg/injection, schedule: Q01DX001 (ip), vehicle: other",98 % of control
same,T/C,[4],98 % of control
same,T/C,[5],102 % of control
same,T/C,[6],96 % of control
COc1cc(Cl)ccc1N=CC(=O)c1ccc(C)cc1,T/C,"dose: 12.5 mg/kg/injection, schedule: Q04DX002 (ip), vehicle: Klucel (hydroxypropylcellulose) (HPC)",94 % of control
same,T/C,"dose: 25.0 mg/kg/injection, schedule: Q04DX002 (ip), vehicle: Klucel (hydroxypropylcellulose) (HPC)",87 % of control
same,T/C,"dose: 50.0 mg/kg/injection, schedule: Q04DX002 (ip), vehicle: Klucel (hydroxypropylcellulose) (HPC)",115 % of control
Oc1ccc(-c2ccccc2)cc1O,T/C,[7],105 % of control
same,T/C,[8],109 % of control
same,T/C,[9],109 % of control
CC1CCCCC1=C(C#N)C#N (centres undefined),T/C,"dose: 5.0 mg/kg/injection, schedule: Q01DX001 (ip), vehicle: saline",97 % of control
same,T/C,"dose: 10.0 mg/kg/injection, schedule: Q01DX001 (ip), vehicle: saline",121 % of control
same,T/C,"dose: 20.0 mg/kg/injection, schedule: Q01DX001 (ip), vehicle: saline",94 % of control
same,T/C,"dose: 40.0 mg/kg/injection, schedule: Q01DX001 (ip), vehicle: saline",103 % of control
CC(=O)OC1CCC2(C)C(=CCC3C2CCC2(C)C(OC(=O)c4ccccc4)CCC32)C1 (centres undefined),T/C,"dose: 100.0 mg/kg/injection, schedule: Q01DX009 (ip), vehicle: saline with Tween-80",89 % of control
same,T/C,"dose: 200.0 mg/kg/injection, schedule: Q01DX009 (ip), vehicle: saline with Tween-80",110 % of control
same,T/C,"dose: 400.0 mg/kg/injection, schedule: Q01DX009 (ip), vehicle: saline with Tween-80",96 % of control
COc1ccc(OCC2CO2)cc1 (centres undefined),T/C,"dose: 100.0 mg/kg/injection, schedule: Q01DX009 (ip), vehicle: Klucel (hydroxypropylcellulose) (HPC)",103 % of control
same,T/C,[10],100 % of control
same,T/C,"dose: 200.0 mg/kg/injection, schedule: Q01DX009 (ip), vehicle: Klucel (hydroxypropylcellulose) (HPC)",103 % of control
same,T/C,[11],96 % of control
same,T/C,"dose: 400.0 mg/kg/injection, schedule: Q01DX009 (ip), vehicle: Klucel (hydroxypropylcellulose) (HPC)",102 % of control
same,T/C,[12],102 % of control
Nc1c(S(=O)(=O)O)cc(Br)c2c1C(=O)c1ccccc1C2=O,T/C,"dose: 100.0 mg/kg/injection, schedule: Q01DX009 (ip), vehicle: saline",92 % of control
same,T/C,[13],96 % of control
same,T/C,[14],95 % of control
same,T/C,[15],93 % of control
same,T/C,"dose: 400.0 mg/kg/injection, schedule: Q01DX009 (ip), vehicle: saline",101 % of control
same,T/C,[16],95 % of control
CNc1ccn(C2CCCO2)c(=O)n1 (centres undefined),T/C,[7],104 % of control
same,T/C,[8],104 % of control
same,T/C,[9],104 % of control
Cc1ccnc(NS(=O)(=O)c2ccc(N=Nc3c(N)[nH]c(=S)[nH]c3=O)cc2)n1,T/C,[17],97 % of control
same,T/C,[18],95 % of control
same,T/C,[19],95 % of control
O=NN(CCCl)C(=O)Nc1cccc(Cl)c1,T/C,"dose: 2.28 mg/kg/injection, schedule: Q01DX001 (ip), vehicle: carboxymethylcellulose (CMC)",112 % of control
same,T/C,"dose: 4.56 mg/kg/injection, schedule: Q01DX001 (ip), vehicle: carboxymethylcellulose (CMC)",116 % of control
same,T/C,[17],160 % of control
same,T/C,"dose: 125.0 mg/kg/injection, schedule: Q01DX001 (ip), vehicle: carboxymethylcellulose (CMC)",104 % of control
same,T/C,"dose: 150.0 mg/kg/injection, schedule: Q01DX001 (ip), vehicle: carboxymethylcellulose (CMC)",153 % of control
same,T/C,"dose: 175.0 mg/kg/injection, schedule: Q01DX001 (ip), vehicle: carboxymethylcellulose (CMC)",156 % of control
Brc1ccc(Br)c2cnccc12,T/C,[4],93 % of control
same,T/C,[5],106 % of control
same,T/C,[6],104 % of control
O=C(O)C1C(C(=O)O)C2(Cl)C(Cl)=C(Cl)C1(Cl)C2(Cl)Cl.[Fe] (centres undefined),T/C,"dose: 25.0 mg/kg/injection, schedule: Q01DX009 (ip), vehicle: saline sonified",93 % of control
same,T/C,[2],94 % of control
same,T/C,"dose: 44.0 mg/kg/injection, schedule: Q01DX Z (ip), vehicle: carboxymethylcellulose (CMC)",92 % of control
same,T/C,"dose: 50.0 mg/kg/injection, schedule: Q01DX001 (ip), vehicle: saline sonified",104 % of control
same,T/C,"dose: 50.0 mg/kg/injection, schedule: Q01DX009 (ip), vehicle: saline sonified",93 % of control
same,T/C,[3],95 % of control and 86 % of control
same,T/C,"dose: 67.0 mg/kg/injection, schedule: Q01DX Z (ip), vehicle: carboxymethylcellulose (CMC)",91 % of control
same,T/C,"dose: 100.0 mg/kg/injection, schedule: Q01DX001 (ip), vehicle: saline sonified",102 % of control
same,T/C,"dose: 100.0 mg/kg/injection, schedule: Q01DX009 (ip), vehicle: saline sonified",93 % of control
same,T/C,[13],103 % of control
same,T/C,"dose: 200.0 mg/kg/injection, schedule: Q01DX001 (ip), vehicle: saline sonified",98 % of control
CCOC(=O)NC(N)=O,T/C,"dose: 50.0 mg/kg/injection, schedule: Q01DX001 (ip), vehicle: carboxymethylcellulose (CMC)",92 % of control
same,T/C,"dose: 75.0 mg/kg/injection, schedule: Q01DX009 (ip), vehicle: saline",100 % of control
same,T/C,[17],97 % of control
same,T/C,[10],110 % of control
same,T/C,[13],107 % of control
same,T/C,"dose: 150.0 mg/kg/injection, schedule: Q01DX009 (ip), vehicle: saline",103 % of control
same,T/C,[18],95 % of control
same,T/C,[11],98 % of control
same,T/C,[15],98 % of control
same,T/C,"dose: 300.0 mg/kg/injection, schedule: Q01DX009 (ip), vehicle: saline",100 % of control
same,T/C,[19],92 % of control
same,T/C,[12],98 % of control
same,T/C,[16],102 % of control
CC(C)NNC(=O)c1cccnc1,T/C,"dose: 25.0 mg/kg/injection, schedule: Q01DX009 (ip), vehicle: saline",97 % of control and 108 % of control
same,T/C,"dose: 50.0 mg/kg/injection, schedule: Q01DX009 (ip), vehicle: saline",94 % of control and 103 % of control
same,T/C,[7],95 % of control
same,T/C,[13],96 % of control
same,T/C,[8],96 % of control
same,T/C,[14],94 % of control
same,T/C,[15],98 % of control
same,T/C,[9],95 % of control
same,T/C,[16],96 % of control
O=[N+]([O-])c1ccc2c(c1)N(CCCN1CCN(CCO)CC1)c1ccccc1S2,T/C,[1],111 % of control
same,T/C,[2],122 % of control
